Target: T1, NO synthase (Rattus norvegicus, UniProt P29476)
T1 construct: the tissue was broken down with a Polytron homogenizer for 1 min at 6,000 rpm; from tissue; host or cells: rat cerebellum, 20,000 g supernatant of homogenate
Assay: HTS NO synthase assay
Assay type: biochemical
Settings: enzyme preparation from rat cerebelli, [3H]arginine substrate
Protocol: This assay allows the determination of the percentage inhibition of NO synthase by a compound of formula I according to the invention by measurement of the NO synthase activity in the presence of the compound. In this procedure, NO synthase is mixed together with radioactively labelled arginine and the particular compound of formula I under suitable conditions. After interruption of the NO formation reaction at a given point in time, the amount of unreacted arginine is determined directly or indirectly. […]
In this HTS NO synthase assay, radioactive arginine is used as the substrate. […] With the aid of this procedure, the arginine substrate which remains is bonded to the cation exchanger, while the radioactive citrulline formed enzymatically is washed out quantitatively. After drying of the filter MTP and addition of scintillation liquid, the bound arginine can be counted on a scintillation counter. An NO synthase reaction which has not been inhibited is reflected in a low radioactivity. […] That is to say a high radioactivity is found on the filter. […]
The plate was then dried for 1 hour at 60° C. in a drying cabinet. […] After a waiting time of 1 hour, the plate was measured on a β-counter.

inhibition at 10 µM: 89%
SMILES: Cc1ccn2c(N)c(-c3ccsc3)nc2c1 [Example 1, 7-Methyl-2-thiophen-3-yl-imidazo[1,2-a]pyridin-3-ylamine]

From patent US20040122044A1, “Utilization of substituted imidazo [1,2-A]-pyridin-3-yl-amide and imidazo [1,2-A]-pyridin-3-yl-amine compounds in pharmaceutical formulations” (priority 2001, published 2004)
